In one assay the test system is RSV A2 strain. Put plainly: In vitro CPE (CytoPathic Effect) inhibition effect evaluation test, RSV type A. In kind it is cell-based. In short, it runs like this:
(§1)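 HEp-2 cells (2.4×10^5 cells/mL, 2% FBS E-MEM) were infected with RSV alongside 3-fold compound dilutions and incubated at 37 °C, 4 days for A2 and 5 days for B Wash/18537. Viable cells quantified by CellTiter-Glo 2.0 luminescence; EC50 by nonlinear regression as 50% CPE inhibition.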
(In general: Damage to the host cells serves as the signal in cytopathic effect assays.)

Assay [1] concerns RSV B (Wash/18537 strain). Nature of the assay: In vitro CPE (CytoPathic Effect) inhibition effect evaluation test, RSV type B. It is filed as cell-based. The procedure, abridged: as §1
Setting [2] is: human respiratory syncytial virus, inhibitory effect against RSV type A (RSV A2 strain), HEp-2 cells, CPE inhibition, read-out: EC50.
Where [3] appears, read: human respiratory syncytial virus, inhibitory effect against RSV type B, CPE inhibition, read-out: EC50.
[4] abbreviates: human respiratory syncytial virus, HEp-2, 96 h, read-out: EC50, inhibitory effect against RSV type A (CPE inhibition).
Where [5] appears, read: human respiratory syncytial virus, HEp-2, 120 h, HEp-2 cells, RSV B (Wash/18537 strain), 5 days, CellTiter-Glo, read-out: EC50, inhibitory effect against RSV type B (CPE inhibition).
Where [6] appears, read: inhibitory effect against RSV type A (RSV A2 strain), HEp-2 cells, CPE inhibition, read-out: EC50.
[7] abbreviates: inhibitory effect against RSV type B, CPE inhibition, read-out: EC50.

Like-named read-outs stand apart in the source and are kept apart here.

Turning to `O=C(NC1(C(=O)O)C2CC3CC(C2)CC1C3)c1cnc(-c2cn(C3CCC(F)(F)CC3)c3cc(OC4CC5(C4)CN(CC(F)(F)F)C5)ccc23)nc1C(F)(F)F` (centres unmarked) [Compound I-406], the EC50 (as a rule, the midpoint of the concentration-response curve) in the assay on RSV A2 strain (setting [2]) is < 10 nM; in assay [1] (setting [3]), 10 to 100 nM.

For `Cc1nc(-c2cn(C3CCOCC3)c3cc(OC4CCN(c5ncccn5)CC4)ccc23)nc(C(F)(F)F)c1C(=O)NC1(C(=O)O)C2CC3CC(C2)CC1C3` (centres unmarked) [Compound I-245], the EC50 (with RSV A2 strain (setting [2]); in assay [1] (setting [3])) was < 10 nM each time.

Take `O=C(NC1(C(=O)O)C2CC3CC(C2)CC1C3)c1cnc(N2CC3(CCC(F)(F)CC3)c3cc(OC4CCN(CC(F)(F)F)CC4)ccc32)nc1C(F)(F)F` (centres unmarked) [Compound I-493]: the EC50 (in the assay with RSV A2 strain (setting [2]); in assay [1] (setting [3])) was < 10 nM in each case.

As for `CCC1(CC)CN(c2ncc(C(=O)NC3(C(=O)O)C4CC5CC(C4)CC3C5)c(C(C)(F)F)n2)c2ccc(OC3CCN(c4ncc(F)cn4)CC3)cc21` (centres unmarked) [Compound I-588], the EC50 (in the assay with RSV A2 strain (setting [2]); in assay [1] (setting [3])) was < 10 nM each time.

As for `O=C(NC1(C(=O)O)C2CC3CC(C2)CC1C3)c1cnc(N2CC(C3CCCC3)c3cc(OC4CCN(c5ncc(F)cn5)CC4)ccc32)nc1C(F)(F)F` (racemic) [Compound I-486], the EC50 is 3 nM in the assay with RSV A2 strain (setting [4]) and 28 nM in assay [1] (setting [5]).

On to `O=C(N[C@]1(C(=O)O)[C@@H]2CC3C[C@H]1C[C@@](F)(C3)C2)c1cnc(N2CC3(CCOCC3)c3cc(OC4CCN(c5ncccn5)CC4)ccc32)nc1C(F)(F)F` [Compound I-165], for which the EC50 with RSV A2 strain (setting [4]) amounted to 0.37 nM; in assay [1] (setting [5]), 0.62 nM.

In the case of `CC(F)(F)CN1CCC(Oc2ccc3c(-c4ncc(C(=O)NC5(C(=O)O)C6CC7CC(C6)CC5C7)c(C(C)(F)F)n4)cn(C4CCOCC4)c3c2)CC1` (centres unmarked) [Compound I-612], the EC50 (in the assay with RSV A2 strain (setting [2]); in assay [1] (setting [3])) was < 10 nM in each case.

For the molecule `CC(F)(F)c1nc(N2CC3(CCOCC3)c3cc(OC4CCC(N5CCC(F)(F)C5)CC4)ccc32)ncc1C(=O)NC1(C(=O)O)C2CC3CC(C2)CC1C3` (centres unmarked) [Compound I-538], the EC50 (in the assay on RSV A2 strain (setting [6]); in assay [1] (setting [7])) was < 10 nM throughout.

Regarding `O=C(NC1(C(=O)O)C2CC3CC(C2)CC1C3)c1cnc(-c2cn(C3CCC(F)(F)CC3)c3cc(OC4CCC(OC5CC5)CC4)ccc23)nc1C(F)(F)F` (single isomer, unassigned) [Compound I-480], the EC50 with RSV A2 strain (setting [6]) is < 10 nM; in assay [1] (setting [7]), 10 to 100 nM.

Take `CC(F)(F)CN1CCC(Oc2ccc3c(-c4ncc(C(=O)NC5(C(=O)O)C6CC7CC(C6)CC5C7)c(C(C)(F)F)n4)cn(C4CCC(F)(F)CC4)c3c2)CC1` (centres unmarked) [Compound I-583]: the EC50 (with RSV A2 strain (setting [2]); in assay [1] (setting [3])) was < 10 nM each time.

Regarding `O=C(NC1(C(=O)O)C2CC3CC(C2)CC1C3)c1cnc(N2CC3(CCOCC3)c3cc(OCCN4CCOCC4)ccc32)nc1C(F)(F)F` (centres unmarked) [Compound I-86], the EC50 (in the assay on RSV A2 strain (setting [6]); in assay [1] (setting [7])) was < 10 nM throughout.

As to `O=C(NC1(C(=O)O)C2CC3CC(C2)CC1C3)c1cnc(-c2cn(C3CCC(F)(F)CC3)c3cc(OC4CC5(C4)CN(c4ncc(F)cn4)C5)ccc23)nc1C(F)(F)F` (centres unmarked) [Compound I-407], the EC50 in the assay on RSV A2 strain (setting [2]) was < 10 nM; in assay [1] (setting [3]), 100 to 5000 nM.

On to `CC(F)(F)c1nc(N2CC3(CCCCC3)c3cc(OC4CCN(c5nc(C(F)(F)F)ns5)CC4)ccc32)ncc1C(=O)NC1(C(=O)O)C2CC3CC(C2)CC1C3` (centres unmarked) [Compound I-536], for which the figures for the EC50 (with RSV A2 strain (setting [2]); in assay [1] (setting [3])) were < 10 nM and 10 to 100 nM, respectively.

As for `CC(C)n1cc(-c2ncc(C(=O)NC3(C(=O)O)C4CC5CC(C4)CC3C5)c(C(C)(F)F)n2)c2ccc(O[C@H]3CC[C@H](N4CC(F)(F)C4)CC3)cc21` (some centres unmarked) [Compound I-618], the EC50 (with RSV A2 strain (setting [2]); in assay [1] (setting [3])) was < 10 nM in each case.

As to `CC(F)(F)c1nc(N2CC3(CCOCC3)c3cc(O[C@H]4CC[C@H](N5CC(F)(F)C5)CC4)ncc32)ncc1C(=O)NC1(C(=O)O)C2CC3CC(C2)CC1C3` (some centres unmarked) [Compound I-594], the results for the EC50 (with RSV A2 strain (setting [4]); in assay [1] (setting [5])) were 0.38 nM and 4.2 nM, respectively.

Turning to `O=C(NC1(C(=O)O)C2CC3CC(C2)CC1C3)c1cnc(-c2cn(C3CCOCC3)c3cc(O[C@H]4CC[C@@H](N5CC(F)(F)C5)CC4)ccc23)nc1C(F)(F)F` (some centres unmarked) [Compound I-614], the EC50 (with RSV A2 strain (setting [2]); in assay [1] (setting [3])) was < 10 nM in each case.

In the case of `O=C(N[C@]1(C(=O)O)[C@@H]2CC3C[C@H]1C[C@@](F)(C3)C2)c1cnc(-c2cn(C3CCC(F)(F)CC3)c3cc(O[C@H]4CC[C@H](N5CC(F)(F)C5)CC4)ccc23)nc1C(F)(F)F` [Compound I-479], the half-maximal effective concentration (EC50) (with RSV A2 strain (setting [2]); in assay [1] (setting [3])) was < 10 nM each time.

Regarding `CC(F)(F)c1nc(N2CC3(CCCCC3)c3cc(OC4CCN(CC(F)(F)F)CC4)ccc32)ncc1C(=O)NC1(C(=O)O)C2CC3CC(C2)CC1C3` (centres unmarked) [Compound I-440], the figures for the EC50 (in the assay with RSV A2 strain (setting [2]); in assay [1] (setting [3])) were < 10 nM and 10 to 100 nM, respectively.

As to `O=C(NC1(C(=O)O)C2CC3CC(C2)CC1C3)c1cnc(-c2cn(C3CCC(F)(F)CC3)c3nc(OC4CCN(c5ncccn5)CC4)ccc23)nc1C(F)(F)F` (centres unmarked) [Compound I-228], the EC50 in the assay on RSV A2 strain (setting [4]) was found to be 1.3 nM; in assay [1] (setting [5]) it was 36 nM.

As for `O=C(NC1(C(=O)O)C2CC3CC(C2)CC1C3)c1cnc(N2CC3(CCCCC3)c3cc(O[C@H]4CC[C@H](N5CC(F)(F)C5)CC4)ncc32)nc1C(F)(F)F` (some centres unmarked) [Compound I-595], the EC50 (in the assay on RSV A2 strain (setting [2]); in assay [1] (setting [3])) was < 10 nM each time.

In the case of `O=C(NC1(C(=O)O)C2CC3CC(C2)CC1C3)c1cnc(N2CC3(CCCCC3)c3cc(O[C@@H]4CCN(CC(F)(F)F)C4)ccc32)nc1C(F)(F)F` (some centres unmarked) [Compound I-518], the EC50 (with RSV A2 strain (setting [2]); in assay [1] (setting [3])) was < 10 nM each time.

With `O=C(NC1(C(=O)O)C2CC3CC(C2)CC1C3)c1ccc(-c2cn(C3CCC(F)(F)CC3)c3cc(O[C@H]4CC[C@@H](N5CC(F)(F)C5)CC4)ccc23)nc1C(F)(F)F` (some centres unmarked) [Compound I-514], the EC50 with RSV A2 strain (setting [2]) is < 10 nM; in assay [1] (setting [3]), 10 to 100 nM.

`O=C(NC1(C(=O)O)C2CC3CC(C2)CC1C3)c1cnc(-c2cn(C3CCC(F)(F)CC3)c3cc(OC4CCN(c5ncc(F)cn5)CC4)ccc23)nc1C(F)(F)F` (centres unmarked) [Compound I-237]: the EC50 (in the assay on RSV A2 strain (setting [2]); in assay [1] (setting [3])) was < 10 nM each time.

As to `Cc1nnc(N2CCC(Oc3ccc4c(c3)C3(CCCCC3)CN4c3ncc(C(=O)NC4(C(=O)O)C5CC6CC(C5)CC4C6)c(C(F)(F)F)n3)CC2)o1` (centres unmarked) [Compound I-534], the EC50 (with RSV A2 strain (setting [2]); in assay [1] (setting [3])) was < 10 nM each time.

With `CCC(CC)n1cc(-c2ccc(C(=O)NC3(C(=O)O)C4CC5CC(C4)CC3C5)c(C(F)(F)F)n2)c2ccc(O[C@H]3CC[C@H](N4CC(F)(F)C4)CC3)cc21` (some centres unmarked) [Compound I-575], the EC50 (with RSV A2 strain (setting [2]); in assay [1] (setting [3])) was < 10 nM throughout.

Turning to `C/C(=N\OC1CCC(F)(F)CC1)c1ccc2c(c1)C1(CCCCC1)CN2c1ncc(C(=O)NC2(C(=O)O)C3CC4CC(C3)CC2C4)c(C(F)(F)F)n1` (single isomer, unassigned) [Compound I-476], the EC50 was in the range of 10 to 100 nM with RSV A2 strain (setting [2]) and 100 to 5000 nM in assay [1] (setting [3]).

Turning to `O=C(NC1(C(=O)O)C2CC3CC(C2)CC1C3)c1cnc(-c2cn(C3CCC(F)(F)CC3)c3cc(OC4CC(N5CC(F)(F)C5)C4)ccc23)nc1C(F)(F)F` (single isomer, unassigned) [Compound I-413], the EC50 in the assay on RSV A2 strain (setting [6]) was < 10 nM; in assay [1] (setting [7]), 10 to 100 nM.

For the molecule `O=C(NC1(C(=O)O)C2CC3CC(C2)CC1C3)c1cnc(-c2cn(C3CCOCC3)c3cc(OC4CCN(c5ncccn5)CC4)ccc23)nc1C(F)(F)F` (centres unmarked) [Compound I-146], the concentration giving a half-maximal response (EC50) (in the assay on RSV A2 strain (setting [2]); in assay [1] (setting [3])) was < 10 nM in each case.

The values are drawn from patent publication US12528790B2, “Amide derivative having antiviral activity” (Shionogi & Co., Ltd., priority 2020, dated 2026).
